Results taken from PubChem BioAssay (NCI).
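Tested at 5 concentrations; 48 h exposure; 96-well plates; endpoints linearly interpolated, else capped at highest concentration. TGI: concentration producing complete growth inhibition.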

Columns and labels:
Assay in all cases: DTP human tumour cell line panel, 48 h
SN12C renal = test system: SN12C renal
SK-MEL-28 melanoma = test system: SK-MEL-28 melanoma
U251 CNS = test system: U251 CNS
OVCAR-4 ovarian = test system: OVCAR-4 ovarian
NCI-H460 lung = test system: NCI-H460 lung
UACC-257 melanoma = test system: UACC-257 melanoma
NCI-H23 lung = test system: NCI-H23 lung
M14 melanoma = test system: M14 melanoma
SK-MEL-5 melanoma = test system: SK-MEL-5 melanoma
CAKI-1 renal = test system: CAKI-1 renal
COLO 205 colon = test system: COLO 205 colon
SF-268 CNS = test system: SF-268 CNS
SK-MEL-2 melanoma = test system: SK-MEL-2 melanoma
OVCAR-3 ovarian = test system: OVCAR-3 ovarian
SNB-75 CNS = test system: SNB-75 CNS
RPMI-8226 leukemia = test system: RPMI-8226 leukemia
KM12 colon = test system: KM12 colon
TK-10 renal = test system: TK-10 renal
OVCAR-5 ovarian = test system: OVCAR-5 ovarian
HOP-92 NSCLC = test system: HOP-92 NSCLC

Row | Structure (SMILES) | TGI (SN12C renal) | TGI (SK-MEL-28 melanoma) | TGI (U251 CNS) | TGI (OVCAR-4 ovarian) | TGI (NCI-H460 lung) | TGI (UACC-257 melanoma) | TGI (NCI-H23 lung) | TGI (M14 melanoma) | TGI (SK-MEL-5 melanoma) | TGI (CAKI-1 renal) | TGI (COLO 205 colon) | TGI (SF-268 CNS) | TGI (SK-MEL-2 melanoma) | TGI (OVCAR-3 ovarian) | TGI (SNB-75 CNS) | TGI (RPMI-8226 leukemia) | TGI (KM12 colon) | TGI (TK-10 renal) | TGI (OVCAR-5 ovarian) | TGI (HOP-92 NSCLC)
1 | CC(=O)N1N=C(c2ccc3ccccc3c2O)CC1c1cccs1 (stereo not drawn) | > 100 µM | > 100 µM | > 100 µM | > 100 µM | > 100 µM | > 100 µM | > 100 µM | 39.1 µM | > 100 µM | > 100 µM | > 100 µM | > 100 µM | 74.3 µM | > 100 µM | > 100 µM | 47.1 µM | 46.4 µM | > 100 µM | > 100 µM | > 100 µM
2 | O=C1C(Cl)N(c2cccc(Cl)c2)C1c1c[nH]c2ccccc12 (stereo not drawn) | > 100 µM | > 100 µM | > 100 µM | > 100 µM | > 100 µM | > 100 µM | > 100 µM | > 100 µM | > 100 µM | – | > 100 µM | > 100 µM | > 100 µM | > 100 µM | > 100 µM | > 100 µM | > 100 µM | > 100 µM | – | > 100 µM
3 | CC[C@@H]1ON(C)[C@H]2CN(C)C(=O)[C@@H]12 | > 100 µM | > 100 µM | > 100 µM | > 100 µM | > 100 µM | > 100 µM | > 100 µM | > 100 µM | > 100 µM | > 100 µM | > 100 µM | – | > 100 µM | > 100 µM | – | > 100 µM | – | > 100 µM | > 100 µM | > 100 µM
4 | COc1ccc(-c2csc(=Nc3ccccc3)n2CCCN(C)C)cc1 | > 100 µM | 58.1 µM | > 100 µM | 65.6 µM | 78.4 µM | 37.5 µM | 48.5 µM | 24.4 µM | – | > 100 µM | – | 56.4 µM | 37.7 µM | 37.5 µM | 19.3 µM | 60.8 µM | 29.5 µM | 29.8 µM | 30.4 µM | > 100 µM
5 | COc1cc(C2S/C(=C/c3ccccc3)C(=O)N2c2ccc(NC(C)=O)cc2)cc(OC)c1OC (stereo not drawn) | 60.3 µM | > 100 µM | 38.5 µM | > 100 µM | – | > 100 µM | 66.8 µM | 56.9 µM | 34.9 µM | 72.4 µM | 30.3 µM | 83.3 µM | 20.3 µM | – | 37.5 µM | – | 31 µM | > 100 µM | 96.2 µM | 83.6 µM
6 | COc1ccc2c(c1O)-c1cc(O)cc3c1[C@@H](C2)N(C)CC3 | 183 µM | 157 µM | 250 µM | 125 µM | 150 µM | 138 µM | 257 µM | – | 122 µM | 142 µM | 106 µM | 229 µM | 43.4 µM | 84.2 µM | 124 µM | 286 µM | 114 µM | – | 63.3 µM | 73.6 µM
7 | CCOC1=NC(C(F)(F)F)(C(F)(F)F)N=C(N2CCOCC2)O1 | > 100 µM | > 100 µM | > 100 µM | > 100 µM | > 100 µM | > 100 µM | > 100 µM | > 100 µM | > 100 µM | > 100 µM | > 100 µM | > 100 µM | > 100 µM | > 100 µM | > 100 µM | > 100 µM | > 100 µM | > 100 µM | > 100 µM | > 100 µM
